Experiment: logP by HPLC on reversed-phase column (C 18), EEC Directive 79/B31 Annex V.A8, methods A and B
Assay type: physicochemical
Conditions: reversed-phase HPLC column (C 18), linear gradient 10% to 90% acetonitrile
Method: Calibration was carried out using unbranched alkan-2-ones (having 3 to 16 carbon atoms) with known logP values (determination of the logP values by the retention times using linear interpolation between two successive alkanones).

[1] = HPLC reversed-phase C 18, method B: 40° C., 0.1% aqueous formic acid and acetonitrile
[2] = HPLC reversed-phase C 18, method A: 43° C., 0.1% aqueous phosphoric acid, acetonitrile
[3] = LogP method B: HPLC reversed-phase C 18, 40° C., 0.1% aqueous formic acid / acetonitrile
[4] = LogP method A: HPLC reversed-phase C 18, 43° C., 0.1% aqueous phosphoric acid / acetonitrile

COc1nn(C)c(O)c1C(=O)N(C1CC1)S(=O)(=O)c1cccc(O)c1O [Compound 278]
chromatographic logP [1]: 3.2

CCCOc1nn(C)cc1C(=O)N(C1CC1)S(=O)(=O)c1ccc(Oc2ccc(OC)c(OC)c2)cc1Br [Compound 288]
chromatographic logP [1]: 3.6

CCOC(=O)c1[nH]c(C)c(C(=O)N(C2CC2)S(=O)(=O)c2ccc(C(C)(C)C)cc2)c1C [Compound 33]
chromatographic logP [2]: 4.13

Cc1occc1C(=O)N(C1CC1)S(=O)(=O)c1ccccc1O [Compound 4]
chromatographic logP [2]: 2.77

CCOc1nn(C)cc1C(=O)N(C1CC1)S(=O)(=O)c1ccc(Oc2ccc(Cl)c(C(F)(F)F)c2)cc1Br [Compound 553]
chromatographic logP [3]: 4.5

CCOc1nn(C)cc1C(=O)N(C1CC1)S(=O)(=O)c1ccc(Oc2ccccc2O)c(O)c1 [Compound 537]
chromatographic logP [3]: 4.1

COCCn1c(C)c(C(=O)N(C2CC2)S(=O)(=O)c2ccc(C(F)(F)F)cc2)sc1=O [Compound 610]
chromatographic logP [4]: 2.01

CCc1onc(C(C)C)c1C(=O)N(C1CC1)S(=O)(=O)c1ccc(O)c(O)c1 [Compound 595]
chromatographic logP [4]: 4.77

CCOc1nn(C)cc1C(=O)N(C1CC1)S(=O)(=O)c1ccc(OC2=CC(N(C)C)=CCC2)cc1O [Compound 532]
chromatographic logP [3]: 3.8

O=C(c1cc(Br)c(Br)o1)N(C1CC1)S(=O)(=O)c1ccccc1O [Compound 1]
chromatographic logP [2]: 3.58

Cn1nc(C(F)(F)F)c(C(=O)N(C2CC2)S(=O)(=O)c2c(O)cccc2O)c1F [Compound 360]
chromatographic logP [1]: 3.1

Cc1nn(C)c(C)c1C(=O)N(C1CC1)S(=O)(=O)c1ccc(O)c(C(F)(F)F)c1 [Compound 411]
chromatographic logP [4]: 3.37

CCCOc1nn(C)cc1C(=O)N(C1CC1)S(=O)(=O)c1ccc(Oc2ccc(O)c(C(F)(F)F)c2)cc1Br [Compound 302]
chromatographic logP [1]: 4.9

Cn1nc(C(F)F)c(C(=O)N(C2CC2)S(=O)(=O)c2ccc(O)cc2O)c1F [Compound 105]
chromatographic logP [1]: 3.4

Cc1c(C(=O)N(C2CC2)S(=O)(=O)c2ccccc2O)cnn1-c1ccccc1 [Compound 201]
chromatographic logP [2]: 2.97

Cn1cc(C(=O)N(C2CC2)S(=O)(=O)c2ccc(Oc3ccc(Br)cc3)cc2)c(C(F)(F)F)c1 [Compound 39]
chromatographic logP [1]: 4.5

O=C(c1cccnc1)N(C1CC1)S(=O)(=O)c1ccc(O)c(C(F)(F)F)c1 [Compound 638]
chromatographic logP [4]: 3.1

CC(F)c1nn(C)cc1C(=O)N(C1CC1)S(=O)(=O)c1ccc(Oc2ccc(Br)cc2)cc1 (stereo not drawn) [Compound 122]
chromatographic logP [1]: 4.1

COc1ccc(S(=O)(=O)N(C(=O)c2c(C)nn(C)c2F)C2CC2)cc1 [Compound 184]
chromatographic logP [2]: 2.35

Cc1nn(C)c(O)c1C(=O)N(C1CC1)S(=O)(=O)c1ccc(O)c(O)c1 [Compound 407]
chromatographic logP [4]: 3.63

CCOc1nn(C)cc1C(=O)N(C1CC1)S(=O)(=O)c1ccc(Oc2ccc(O)cc2Cl)cc1O [Compound 543]
chromatographic logP [3]: 4.3

COc1ccccc1S(=O)(=O)N(C(=O)c1c(C)nn(C)c1F)C1CC1 [Compound 182]
chromatographic logP [2]: 2.06

CCOc1nn(C)cc1C(=O)N(C1CC1)S(=O)(=O)c1ccc(Oc2ccc(C)cc2)cc1Cl [Compound 525]
chromatographic logP [3]: 2.2

CCOC(=O)c1[nH]c(C)c(C(=O)N(C2CC2)S(=O)(=O)c2cccc(O)c2)c1C [Compound 29]
chromatographic logP [2]: 3.46

CCCOc1nn(C)cc1C(=O)N(C1CC1)S(=O)(=O)c1ccc(Oc2ccc(C)cc2)cc1Br [Compound 293]
chromatographic logP [1]: 4.5

Cc1ncc(C(=O)N(C2CC2)S(=O)(=O)c2ccc(C(F)(F)F)cc2)s1 [Compound 61]
chromatographic logP [2]: 3.1

COCCn1c(C)c(C(=O)N(C2CC2)S(=O)(=O)c2ccc(O)c(C(F)(F)F)c2)sc1=O [Compound 619]
chromatographic logP [4]: 2.01

Cc1ccsc1C(=O)N(C1CC1)S(=O)(=O)c1ccccc1O [Compound 14]
chromatographic logP [2]: 3.12

CCOc1nn(C)cc1C(=O)N(C1CC1)S(=O)(=O)c1ccc(Oc2ccc(Br)cc2)cc1Br [Compound 541]
chromatographic logP [3]: 4.2

Cn1nc(C(F)(F)F)c(C(=O)N(C2CC2)S(=O)(=O)c2ccccc2C(F)(F)F)c1F [Compound 364]
chromatographic logP [1]: 3.1

O=C(c1cccnc1O)N(C1CC1)S(=O)(=O)c1ccc(O)c(O)c1O [Compound 647]
chromatographic logP [3]: 3.7

CC(C)c1c(C(=O)N(C2CC2)S(=O)(=O)c2ccc(C(C)(C)C)cc2)sc(=O)n1C1CC1 [Compound 636]
chromatographic logP [4]: 3.01

CCCOc1nn(C)cc1C(=O)N(C1CC1)S(=O)(=O)c1ccc(Oc2ccc(O)cc2)cc1Br [Compound 295]
chromatographic logP [1]: 4.5

Cc1c(C(=O)N(C2CC2)S(=O)(=O)c2ccc(O)c(O)c2)sc(=O)n1C [Compound 623]
chromatographic logP [4]: 2.01

Cn1cc(C(=O)N(C2CC2)S(=O)(=O)c2ccc(O)c(O)c2O)c(C(F)(F)F)c1 [Compound 37]
chromatographic logP [1]: 3.9

CCc1c(C(=O)N(C2CC2)S(=O)(=O)c2cccc(O)c2)sc(=O)n1C1CC1 [Compound 615]
chromatographic logP [4]: 2.01

Cn1nc(-c2ccccc2)c(C(=O)N(C2CC2)S(=O)(=O)c2ccc(O)c(O)c2O)c1F [Compound 100]
chromatographic logP [1]: 4.3

COc1c(C(=O)N(C2CC2)S(=O)(=O)c2ccc(O)c(O)c2O)c(C)nn1C [Compound 230]
chromatographic logP [1]: 3.2

Cn1nc(C2CC2)c(C(=O)N(C2CC2)S(=O)(=O)c2ccc(O)c(O)c2O)c1O [Compound 223]
chromatographic logP [1]: 4.2

CCCOc1nn(C)cc1C(=O)N(C1CC1)S(=O)(=O)c1ccc(Oc2cccc(Br)c2)cc1Br [Compound 299]
chromatographic logP [1]: 4.6

CCOC(=O)c1[nH]c(C)c(C(=O)N(C2CC2)S(=O)(=O)c2ccc(O)c(C(F)(F)F)c2)c1C [Compound 31]
chromatographic logP [2]: 4.08

Cc1ncc(C(=O)N(C2CC2)S(=O)(=O)c2ccc(O)cc2O)s1 [Compound 64]
chromatographic logP [2]: 2.91

COc1nn(C)cc1C(=O)N(C1CC1)S(=O)(=O)c1ccc(Oc2ccc(Cl)cc2)cc1Br [Compound 469]
chromatographic logP [3]: 3.8

Cc1nn(C)c(C#N)c1C(=O)N(C1CC1)S(=O)(=O)c1ccc(O)c(O)c1O [Compound 228]
chromatographic logP [1]: 3.9

CCCOc1nn(C)cc1C(=O)N(C1CC1)S(=O)(=O)c1ccc(Oc2ccc(Br)cc2)cc1Br [Compound 300]
chromatographic logP [1]: 4.6

CCCOc1nn(C)cc1C(=O)N(C1CC1)S(=O)(=O)c1ccc(Oc2cccc(N(C)C)c2)cc1Br [Compound 292]
chromatographic logP [1]: 4.4

COc1nn(C)cc1C(=O)N(C1CC1)S(=O)(=O)c1ccc(F)cc1Br [Compound 459]
chromatographic logP [3]: 2.2

Cc1cc(C(=O)N(C2CC2)S(=O)(=O)c2ccc(Oc3ccc(Br)cc3)cc2)c(C)o1 [Compound 7]
chromatographic logP [1]: 4.9

CCCCCc1ccc(Oc2ccc(S(=O)(=O)N(C(=O)c3cn(C)nc3OC)C3CC3)c(Br)c2)cc1 [Compound 482]
chromatographic logP [3]: 5.4

Cc1n[nH]c(C)c1C(=O)N(C1CC1)S(=O)(=O)c1ccc(C(F)(F)F)cc1 [Compound 402]
chromatographic logP [4]: 2.5

CCc1onc(C(C)C)c1C(=O)N(C1CC1)S(=O)(=O)c1ccc(C(F)(F)F)cc1 [Compound 590]
chromatographic logP [4]: 4.37

Cc1oncc1C(=O)N(C1CC1)S(=O)(=O)c1cccc(O)c1O [Compound 603]
chromatographic logP [3]: 2.2

CCc1c(C(=O)N(C2CC2)S(=O)(=O)c2ccc(O)cc2O)sc(=O)n1C1CC1 [Compound 631]
chromatographic logP [4]: 2.01

CCCOc1nn(C)cc1C(=O)N(C1CC1)S(=O)(=O)c1ccc(Oc2ccccc2O)cc1Br [Compound 291]
chromatographic logP [1]: 4.2
